ChEMBL document CHEMBL4311962, “Benzofuran-isatin hybrids and their in vitro anti-mycobacterial activities against multi-drug resistant Mycobacterium tuberculosis” (Eur J Med Chem, 2019)
≈ marks a conversion by molar mass, not a printed value.

Assays:
[1] = tested on: Mycobacterium tuberculosis; experiment: Antimycobacterial activity against multidrug (INH and RIF)-resistant Mycobacterium tuberculosis clinical isolate 1 assessed as inhibition of bacterial growth incubated for 7 days by rapid direct susceptibility test technique; type: functional; conditions: 168 h
[2] = tested on: Mycobacterium tuberculosis; experiment: Antimycobacterial activity against multidrug (ethambutol, INH and RIF)-resistant Mycobacterium tuberculosis clinical isolate 2 assessed as inhibition of bacterial growth incubated for 7 days by rapid direct susceptibility test technique; type: functional; conditions: 168 h
[3] = Selectivity index, ratio of CC50 for CHO cells to MIC for multidrug (INH and RIF)-resistant Mycobacterium tuberculosis clinical isolate 1; type: toxicity; conditions: hamster, read-out: Selectivity Index
[4] = tested on: Mycobacterium tuberculosis; experiment: Potency index, ratio of rifampicin MIC to compound MIC for multidrug (INH and RIF)-resistant Mycobacterium tuberculosis clinical isolate 1 incubated for 7 days by rapid direct susceptibility test technique; type: functional
[5] = tested on: Mycobacterium tuberculosis; experiment: Potency index, ratio of isoniazid MIC to compound MIC for multidrug (INH and RIF)-resistant Mycobacterium tuberculosis clinical isolate 1 incubated for 7 days by rapid direct susceptibility test technique; type: functional
[6] = tested on: Mycobacterium tuberculosis; experiment: Potency index, ratio of ciprofloxacin MIC to compound MIC for multidrug (ethambutol, INH and RIF)-resistant Mycobacterium tuberculosis clinical isolate 2 incubated for 7 days by rapid direct susceptibility test technique; type: functional
[7] = tested on: Mycobacterium tuberculosis; experiment: Potency index, ratio of ciprofloxacin MIC to compound MIC for multidrug (INH and RIF)-resistant Mycobacterium tuberculosis clinical isolate 1 incubated for 7 days by rapid direct susceptibility test technique; type: functional
[8] = tested on: Mycobacterium tuberculosis; experiment: Potency index, ratio of rifampicin MIC to compound MIC for multidrug (ethambutol, INH and RIF)-resistant Mycobacterium tuberculosis clinical isolate 2 incubated for 7 days by rapid direct susceptibility test technique; type: functional
[9] = tested on: Mycobacterium tuberculosis; experiment: Potency index, ratio of isoniazid MIC to compound MIC for multidrug (ethambutol, INH and RIF)-resistant Mycobacterium tuberculosis clinical isolate 2 incubated for 7 days by rapid direct susceptibility test technique; type: functional

| SMILES | MIC [1] [mg/L] | MIC [2] [mg/L] | selectivity ratio [3] | Ratio [4] | Ratio [5] | Ratio [6] | Ratio [7] | Ratio [8] | Ratio [9] |
| --- | --- | --- | --- | --- | --- | --- | --- | --- | --- |
| CCOC(=O)c1c(-c2ccccc2)oc2ccc(OCCCN3C(=O)/C(=N/O)c4ccccc43)cc12 | 8 (≈ 16.5 µM) | 16 (≈ 33 µM) | 64 | – | – | – | – | – | – |
| CCOC(=O)c1c(-c2ccc(F)cc2)oc2ccc(OCCCCCCN3C(=O)/C(=N/OC)c4ccccc43)cc12 | 0.5 (≈ 0.895 µM) | 0.25 (≈ 0.448 µM) | 258 | – | – | – | – | – | – |
| CNC(=O)c1c(-c2ccc(O)cc2)oc2ccc(O)c(CN3CCCCC3)c12 | < 0.06 | < 0.06 | > 16400 | – | – | – | – | – | – |
| CCOC(=O)c1c(-c2ccc(F)cc2)oc2ccc(OCCCN3C(=O)/C(=N/O)c4ccccc43)cc12 | 8 (≈ 15.9 µM) | 4 (≈ 7.96 µM) | 32 | – | – | – | – | – | – |
| CCOC(=O)c1c(-c2ccccc2)oc2ccc(OCCCN3C(=O)C(=O)c4cc(OC)ccc43)cc12 | 8 (≈ 16 µM) | 16 (≈ 32 µM) | 64 | – | – | – | – | – | – |
| CCOC(=O)c1c(-c2ccc(OC)cc2)oc2ccc(OCCCN3C(=O)C(=O)c4cc(F)ccc43)cc12 | 2 (≈ 3.86 µM) | 2 (≈ 3.86 µM) | 32 | – | – | – | – | – | – |
| CCOC(=O)c1c(-c2ccc(F)cc2)oc2ccc(OCCCCCCN3C(=O)C(=O)c4cc(OC)ccc43)cc12 | 2 (≈ 3.57 µM) | 2 (≈ 3.57 µM) | 128 | – | – | – | – | – | – |
| CCOC(=O)c1c(-c2ccccc2)oc2ccc(OCCCN3C(=O)/C(=N/O)c4cc(OC)ccc43)cc12 | 16 (≈ 31.1 µM) | 16 (≈ 31.1 µM) | 32 | – | – | – | – | – | – |
| CCOC(=O)c1c(-c2ccc(F)cc2)oc2ccc(OCCCN3C(=O)C(=O)c4ccccc43)cc12 | 1 (≈ 2.05 µM) | 2 (≈ 4.1 µM) | 256 | – | – | – | – | – | – |
| CCOC(=O)c1c(-c2ccc(F)cc2)oc2ccc(OCCCCCCN3C(=O)/C(=N\O)c4cc(OC)ccc43)cc12 | 4 (≈ 6.96 µM) | 1 (≈ 1.74 µM) | 128 | – | – | – | – | – | – |
| CCOC(=O)c1c(-c2ccc(OC)cc2)oc2ccc(OCCCCCCN3C(=O)/C(=N/NC(N)=S)c4cc(F)ccc43)cc12 | 0.125 (≈ 0.198 µM) | 0.25 (≈ 0.395 µM) | 1024 | >=512 | >=512 | 8 - 16 | 8 - 16 | >=512 | >=512 |
| CCO/N=C1\C(=O)N(CCCCCCOc2ccc3oc(-c4ccc(F)cc4)c(C(=O)OCC)c3c2)c2ccc(OC)cc21 | 2 (≈ 3.32 µM) | 1 (≈ 1.66 µM) | 128 | – | – | – | – | – | – |
| CCOC(=O)c1c(-c2ccc(F)cc2)oc2ccc(OCCN3C(=O)C(=O)c4cc(OC)ccc43)cc12 | 8 (≈ 15.9 µM) | 4 (≈ 7.94 µM) | 64 | – | – | – | – | – | – |
| CCOC(=O)c1c(-c2ccccc2)oc2ccc(OCCN3C(=O)C(=O)c4cc(F)ccc43)cc12 | 4 (≈ 8.45 µM) | 2 (≈ 4.22 µM) | 16 | – | – | – | – | – | – |
| CCOC(=O)c1c(-c2ccccc2)oc2ccc(OCCCCCCN3C(=O)C(=O)c4ccccc43)cc12 | 1 (≈ 1.95 µM) | 2 (≈ 3.91 µM) | 128 | – | – | – | – | – | – |
| CCOC(=O)c1c(-c2ccc(OC)cc2)oc2ccc(OCCCCN3C(=O)C(=O)c4ccccc43)cc12 | 2 (≈ 3.89 µM) | 4 (≈ 7.79 µM) | 128 | – | – | – | – | – | – |
| CCOC(=O)c1c(-c2ccc(OC)cc2)oc2ccc(OCCCCCN3C(=O)C(=O)c4ccccc43)cc12 | 2 (≈ 3.79 µM) | 1 (≈ 1.9 µM) | 64 | – | – | – | – | – | – |
| CCOC(=O)c1c(-c2ccc(F)cc2)oc2ccc(OCCN3C(=O)C(=O)c4ccccc43)cc12 | 4 (≈ 8.45 µM) | 4 (≈ 8.45 µM) | 32 | – | – | – | – | – | – |
| CCOC(=O)c1c(-c2ccccc2)oc2ccc(OCCCN3C(=O)C(=O)c4ccccc43)cc12 | 4 (≈ 8.52 µM) | 8 (≈ 17 µM) | 63 | – | – | – | – | – | – |
| CCOC(=O)c1c(-c2ccc(F)cc2)oc2ccc(OCCN3C(=O)C(=O)c4cc(F)ccc43)cc12 | 2 (≈ 4.07 µM) | 2 (≈ 4.07 µM) | 32 | – | – | – | – | – | – |
| NNC(=O)c1ccncc1 [ISONIAZID] | > 128 | > 128 | < 2 | – | – | – | – | – | – |
| CO[C@H]1/C=C/O[C@@]2(C)Oc3c(C)c(O)c4c(O)c(c(/C=N/N5CCN(C)CC5)c(O)c4c3C2=O)NC(=O)/C(C)=C\C=C\[C@H](C)[C@H](O)[C@@H](C)[C@@H](O)[C@@H](C)[C@H](OC(C)=O)[C@@H]1C [RIFAMPIN] | 64 (≈ 77.8 µM) | > 128 | 8 | – | – | – | – | – | – |
